Reference: ChEMBL document CHEMBL3879887, “Aminocyclohexyl ether compounds and uses thereof” (2007)

Tested on: Canis familiaris
Assay: Inhibition of atrial fibrillation in iv dosed Mongrel dog vagal-atrial fibrillation model administered via infusion pump over 5 mins by electrophysiological method
Assay type: functional, Canis lupus familiaris
Conditions: not given

SMILES	ED [µmol/kg]
O=C(NCC1CCCCN1)c1cc(OCC(F)(F)F)ccc1OCC(F)(F)F (stereo not drawn) [FLECAINIDE]	1 to 10

Tested on: not listed separately
Assay: Neurotoxicity in iv dosed Sprague-Dawley rat assessed as minimum infusion rate of the compound require for partial and complete convulsion
Assay type: toxicity, organism-based
Conditions: in vivo

SMILES	Activity [µmol/kg/min]
COc1ccc(CCOC2CCCCC2N2CCCC2)cc1OC.Cl (stereo not drawn)	8 to 21.3
COc1ccc(CCO[C@H]2CCCCC2N2CC[C@H](OCc3ccccc3)C2)cc1OC.Cl (stereo partly drawn)	8

Tested on: not listed separately
Assay: Neurotoxicity in iv dosed Sprague-Dawley rat assessed as total amount of drug infused at the point that partial or complete convulsions are first observed
Assay type: toxicity, organism-based
Conditions: in vivo

SMILES	Activity [µmol/kg]
COc1ccc(CCOC2CCCCC2N2CCCC2)cc1OC.Cl (stereo not drawn)	44.4 to 118

Tested on: Rattus norvegicus
Assay: Antiarrhythmic activity in iv dosed Sprague-Dawley rat coronary artery occlusion model administered via infusion for 5 mins starting 15 post surgery followed by coronary artery occlusion measured for 15 mins by electrocardiogram
Assay type: functional
Conditions: not given

SMILES	ED50 [µmol/kg/min]
COc1ccc(CCOC2CCCCC2N2CCCC2)cc1OC.Cl (stereo not drawn)	1.33 to 2.4

Tested on: not listed separately
Assay: Therapeutic index, ratio of neurotoxicity in iv dosed Sprague-Dawley rat assessed as total amount of drug infused at the point that partial or complete convulsions are first observed to 20 times ED50 for antiarrhythmic activity in iv dosed Sprague-Dawley rat coronary artery occlusion model
Assay type: organism-based
Conditions: Sprague-Dawley, in vivo, read-out: TI

SMILES	selectivity ratio
O[C@@H]1CCN(C2CCCC[C@@H]2OCCc2cc3ccccc3o2)C1 (stereo partly drawn)	3.3
COc1ccc(CCCCO[C@H]2CCCCC2N2CCOCC2)cc1OC (stereo partly drawn)	2.2
COc1ccc(CCOC2CCCC[C@H]2N2CCN(C(=O)Cc3ccc(OC)c(OC)c3)CC2)cc1OC (stereo partly drawn)	11.1
COc1ccc(CCO[C@H]2CCCCC2N2CC[C@@H](OCc3ccccc3)C2)cc1OC (stereo partly drawn)	2.6
COc1ccc(CCO[C@H]2CCCCC2N2CC[C@H](OC(C)=O)C2)cc1OC (stereo partly drawn)	2
Clc1cccc(Cl)c1CCOC1CCCC[C@H]1N1CCSC1 (stereo partly drawn)	2.5
c1ccc2c(CCO[C@H]3CCCCC3N3CCOCC3)cccc2c1 (stereo partly drawn)	4.7
COc1ccc(CCO[C@@H]2CCCC[C@H]2N2CC[C@@H](OC(C)=O)C2)cc1OC	1.8
O=C1CCN(C2CCCC[C@@H]2OCC(c2ccccc2)c2ccccc2)C1 (stereo partly drawn)	3.1
Clc1ccc(CCO[C@H]2CCCCC2N2CCOCC2)cc1Cl (stereo partly drawn)	3.9
O=C1CCN(C2CCCC[C@@H]2OCCc2c(Cl)cccc2Cl)C1 (stereo partly drawn)	8.6
OC1CCN(C2CCCC[C@@H]2OCCc2ccccc2Br)C1 (stereo partly drawn)	8.4
Brc1ccc(CCO[C@H]2CCCCC2N2CCOCC2)cc1 (stereo partly drawn)	2.2
COc1ccc(CCOC2CCCC[C@H]2N2CCC(=O)C2)cc1OC (stereo partly drawn)	2.6
Clc1cccc(Cl)c1COC1CCCC[C@H]1N1CCOCC1 (stereo partly drawn)	2.7
CC(=O)OC1CCN([C@@H]2CCCCC2OCCc2cccc3ccccc23)C1 (stereo partly drawn)	2.3
OC1CCN(C2CCCC[C@@H]2OCCc2c(Cl)cccc2Cl)C1 (stereo partly drawn)	5.4

SMILES	selectivity ratio
c1ccc2c(CCO[C@H]3CCCCC3N3CCOCC3)csc2c1 (stereo partly drawn)	3.3
OC1CCN(C2CCCC[C@@H]2OCCn2ccc3ccccc32)C1 (stereo partly drawn)	9.4
Brc1ccccc1CCO[C@H]1CCCCC1N1CCOCC1 (stereo partly drawn)	6.3
O[C@@H]1CCN(C2CCCC[C@@H]2OCCc2ccccc2C(F)(F)F)C1 (stereo partly drawn)	7.3
COc1ccc(CCOC2CCCC[C@H]2N2CCC(F)C2)cc1OC (stereo partly drawn)	2.3
c1ccc2cc(CCO[C@H]3CCCCC3N3CCOCC3)ccc2c1 (stereo partly drawn)	5.3
c1ccc2cc(OCCO[C@H]3CCCCC3N3CCOCC3)ccc2c1 (stereo partly drawn)	1.5
Brc1ccc(OCCO[C@H]2CCCCC2N2CCOCC2)cc1 (stereo partly drawn)	1.4
COc1ccc(CCO[C@H]2CCCCC2N2CCC[C@@H]2CO)cc1OC (stereo partly drawn)	8.9
COc1ccc(CCO[C@H]2CCCCC2N2CCC3(C2)OCCO3)cc1OC (stereo partly drawn)	2.9
COc1cc(CCCO[C@H]2CCCCC2N2CC[C@@H](O)C2)cc(Cl)c1OC (stereo partly drawn)	7.6
c1cc(CCO[C@H]2CCCCC2N2CCOCC2)c2ccsc2c1 (stereo partly drawn)	2.7
COc1ccc(CCOC2CCCCC2N2CCCC2)cc1OC.Cl (stereo not drawn)	0.9 to 4.4
O=C1CCN([C@@H]2CCCCC2OCc2c(Cl)cccc2Cl)C1 (stereo partly drawn)	5.1
Brc1cccc(CCO[C@H]2CCCCC2N2CCOCC2)c1 (stereo partly drawn)	3.3
COc1ccc(CCO[C@H]2CCCCC2N2CC[C@H](OCc3ccccc3)C2)cc1OC.Cl (stereo partly drawn)	3.8
FC(F)(F)c1ccccc1CCO[C@H]1CCCC[C@H]1N1CCOCC1 (racemic)	3.6

Same assay, conditions: in vivo

SMILES	TI
Cl.OC1CCN(C2CCCC[C@@H]2OCCc2cccc3ccccc23)C1 (stereo partly drawn)	4.3
Cl.OC1CCN([C@@H]2CCCC[C@@H]2OCCc2cccc3ccccc23)C1 (stereo partly drawn)	8.8
COc1ccc(CCO[C@H]2CCCCC2N2CCOCC2)cc1OC (stereo partly drawn)	1.4
COc1ccc(CCOC2CCCC[C@H]2N2CCOCC2)cc1OC.Cl (stereo partly drawn)	3.8
